The target of one assay is T1, α4β1 (Homo sapiens, UniProt P05556+P13612).
T1 construct: Ramos cells, (50 μL at 2×10^6/mL) labeled with 5 μM Calcein AM; endogenous in cells; host or cells: Ramos cells
Put plainly: Ramos Cell Adhesion Assay (α4β1 Mediated Adhesion/VCAM-1). It is filed as cell-based. As to conditions: Ramos cells adhering to recombinant hVCAM-1. The protocol:
Ramos Cell Adhesion Assay (α4β1 Mediated Adhesion/VCAM-1)
Immulon 96 well plates (Dynex) were coated with 100 μL recombinant hVCAM-1 at 4.0 μg/mL in 0.05 M NaCO3 buffer pH 9.0 overnight at 4° C. (R&D Systems). Plates were washed 2 times in PBS with 1% BSA and blocked for 1 h@room temperature in this buffer. PBS was removed and compounds to be tested (50 μL) were added at 2× concentration. Ramos cells, (50 μL at 2×10^6/mL) labeled with 5 μM Calcein AM (Molecular Probes) for 1 h at 37° C., were added to each well and allowed to adhere for 1 h at room temperature. Plates were washed 4 × in PBS+1% BSA and cells were lysed for 15 minutes in 100 μL of 1 M Tris pH 8.0 with 1% SDS. The plate was read at 485 nm excitation and 530 nm emission.

In the next assay the target is T2, human α4β7 integrin (Homo sapiens, UniProt P13612+P26010).
T2 construct: expressed in transfected cells; host or cells: K562 cells, stably transfected
T2 sequence (P13612 34-1032): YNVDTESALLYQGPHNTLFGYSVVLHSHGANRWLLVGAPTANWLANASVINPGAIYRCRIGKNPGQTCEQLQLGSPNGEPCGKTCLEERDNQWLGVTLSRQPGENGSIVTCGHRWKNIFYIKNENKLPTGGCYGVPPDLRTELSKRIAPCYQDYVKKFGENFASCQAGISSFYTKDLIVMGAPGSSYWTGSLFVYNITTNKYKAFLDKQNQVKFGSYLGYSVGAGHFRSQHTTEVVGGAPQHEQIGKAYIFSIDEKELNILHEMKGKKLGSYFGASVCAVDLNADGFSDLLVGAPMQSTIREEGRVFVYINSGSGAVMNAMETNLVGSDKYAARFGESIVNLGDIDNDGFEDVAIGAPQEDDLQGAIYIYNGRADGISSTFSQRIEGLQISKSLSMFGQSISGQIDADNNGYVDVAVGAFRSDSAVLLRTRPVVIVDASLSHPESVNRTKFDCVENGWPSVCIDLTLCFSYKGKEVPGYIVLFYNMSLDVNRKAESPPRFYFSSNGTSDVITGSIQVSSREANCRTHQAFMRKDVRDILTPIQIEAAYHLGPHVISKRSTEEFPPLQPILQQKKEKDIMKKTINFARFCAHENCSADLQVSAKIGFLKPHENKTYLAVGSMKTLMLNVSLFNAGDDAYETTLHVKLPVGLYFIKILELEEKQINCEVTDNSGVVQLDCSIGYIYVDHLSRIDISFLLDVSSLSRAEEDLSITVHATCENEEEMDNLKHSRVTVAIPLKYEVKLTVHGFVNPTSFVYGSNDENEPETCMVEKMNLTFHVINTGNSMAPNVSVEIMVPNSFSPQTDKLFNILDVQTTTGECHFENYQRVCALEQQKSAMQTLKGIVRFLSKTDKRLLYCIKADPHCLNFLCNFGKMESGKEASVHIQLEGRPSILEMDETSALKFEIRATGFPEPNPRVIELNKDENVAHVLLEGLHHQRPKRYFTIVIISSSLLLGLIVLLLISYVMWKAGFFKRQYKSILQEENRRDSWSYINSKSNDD
T2 sequence (P26010 20-798): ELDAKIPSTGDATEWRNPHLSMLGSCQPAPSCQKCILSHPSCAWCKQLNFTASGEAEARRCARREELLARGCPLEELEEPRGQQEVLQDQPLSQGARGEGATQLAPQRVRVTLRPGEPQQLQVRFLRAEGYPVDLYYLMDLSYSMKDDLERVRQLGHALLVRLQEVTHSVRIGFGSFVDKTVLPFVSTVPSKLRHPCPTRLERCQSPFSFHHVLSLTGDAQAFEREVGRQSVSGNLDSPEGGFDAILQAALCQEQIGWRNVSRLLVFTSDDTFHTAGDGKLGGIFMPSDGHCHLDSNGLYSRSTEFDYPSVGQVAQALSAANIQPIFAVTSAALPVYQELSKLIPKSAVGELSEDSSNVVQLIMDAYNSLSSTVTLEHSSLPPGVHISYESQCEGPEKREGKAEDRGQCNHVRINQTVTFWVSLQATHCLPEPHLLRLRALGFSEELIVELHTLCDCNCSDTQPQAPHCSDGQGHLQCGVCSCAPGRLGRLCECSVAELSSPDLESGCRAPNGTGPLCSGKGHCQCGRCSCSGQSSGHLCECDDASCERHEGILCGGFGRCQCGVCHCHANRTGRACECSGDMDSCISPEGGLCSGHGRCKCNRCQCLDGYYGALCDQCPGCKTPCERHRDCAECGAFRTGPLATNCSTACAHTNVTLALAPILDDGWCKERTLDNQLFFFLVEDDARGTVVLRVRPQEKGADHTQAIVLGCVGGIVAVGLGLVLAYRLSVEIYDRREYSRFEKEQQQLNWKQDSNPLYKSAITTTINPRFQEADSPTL
As to the kind of experiment: α4β7-K562 Cell Adhesion Assay (α4β7 Mediated Adhesion/MAdCAM-1). The following applies: K562 cells expressing human α4β7 adhering to FLAG-hMAdCAM-1, 1 mM Mn2+. It is filed as cell-based. How it is done:
α4β7-K562 Cell Adhesion Assay (α4β7 Mediated Adhesion/MAdCAM-1)
M2 anti-FLAG Antibody Coated 96-well plates (Sigma) were coated for 1 hour at 4° C. with 2-8 μL/well recombinant FLAG-hMAdCAM-1 contained in 100 μL of Dulbecco's PBS, pH 7.4, with 1% BSA and 1 mM Mn^2+ (PBS-BSA-Mn). Plates were washed once with PBS-BSA-Mn. Buffer was removed and compounds to be tested (50 μL) were added at 2× concentration. Stably transfected K562 cells expressing human α4β7 integrin, (50 μL at 2×10^6/mL) that had been labeled with 100 μg/mL carboxymethyl fluorescein diacetate succinimidyl ester (CFDA-SE; Molecular Probes) for 15 min at 37° C. were added to each well and allowed to adhere for 1 h at room temperature. Plates were washed 4× in PBS-BSA-Mn and then cells were lysed for 2 min by addtion of 100 μL of PBS without Ca^2+, Mg^2+ supplemented with 0.1 M NaOH. The plate was read on a 96-well fluorescent plate reader at 485 nm excitation and 530 nm emission.

T1 sequence (P05556 21-798, one chain of several): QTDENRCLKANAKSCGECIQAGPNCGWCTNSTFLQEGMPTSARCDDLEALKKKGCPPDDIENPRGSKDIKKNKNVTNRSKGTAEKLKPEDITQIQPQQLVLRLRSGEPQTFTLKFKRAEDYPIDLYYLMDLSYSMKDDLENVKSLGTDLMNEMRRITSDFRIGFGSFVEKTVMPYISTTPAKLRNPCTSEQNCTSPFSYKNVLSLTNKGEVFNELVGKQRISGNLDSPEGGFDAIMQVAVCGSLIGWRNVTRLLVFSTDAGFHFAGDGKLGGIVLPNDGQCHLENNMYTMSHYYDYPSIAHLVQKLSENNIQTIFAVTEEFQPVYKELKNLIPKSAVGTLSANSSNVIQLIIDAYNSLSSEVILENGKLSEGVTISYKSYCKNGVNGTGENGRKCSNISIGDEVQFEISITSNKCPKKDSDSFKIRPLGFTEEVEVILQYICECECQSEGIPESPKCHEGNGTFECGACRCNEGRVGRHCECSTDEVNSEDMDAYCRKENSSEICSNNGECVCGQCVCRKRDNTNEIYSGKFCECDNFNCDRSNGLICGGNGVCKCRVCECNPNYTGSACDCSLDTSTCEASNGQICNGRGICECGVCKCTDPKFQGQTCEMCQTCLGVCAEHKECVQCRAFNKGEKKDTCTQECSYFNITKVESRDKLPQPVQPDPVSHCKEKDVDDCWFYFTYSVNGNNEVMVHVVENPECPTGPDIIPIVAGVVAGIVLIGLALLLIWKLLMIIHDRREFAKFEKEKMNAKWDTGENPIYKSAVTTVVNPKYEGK

Consider `COc1cnn(C)c(=O)c1-c1ccc(C[C@H](NC(=O)N(CCO)Cc2ccccc2)C(=O)O)cc1` [Cpd 15], for which the IC50 on α4β1 was over 5000 nM; against human α4β7 integrin it was 310 nM.
As for `COc1cnn(C)c(=O)c1-c1ccc(C[C@H](NC(=O)N(CCO)c2ccccc2)C(=O)O)cc1` [Cpd 16], the IC50 on α4β1 was over 5000 nM; at human α4β7 integrin it was 69 nM.
For the molecule `COc1cnn(C)c(=O)c1-c1ccc(C[C@H](NC(=O)N(CCO)C2CCCCC2)C(=O)O)cc1` [Cpd 17], the IC50 at α4β1 is over 5000 nM; at human α4β7 integrin, 282 nM.
Consider `COc1cnn(C)c(=O)c1-c1ccc(C[C@H](NC(=O)N(Cc2ccccc2)CC(C)C)C(=O)O)cc1` [Cpd 18], for which the IC50 was found to be 2650 nM at α4β1 and 395 nM against human α4β7 integrin.
On to `COc1cnn(C)c(=O)c1-c1ccc(C[C@H](NC(=O)N(C2CC2)C2CCN(C)CC2)C(=O)O)cc1` [Cpd 22], for which the values for the IC50 on α4β1 and against human α4β7 integrin were over 5000 nM and 135 nM, respectively.
Take `COc1cnn(C)c(=O)c1-c1ccc(C[C@H](NC(=O)N[C@H]2CC3CCC2C3)C(=O)O)cc1` (stereo partly shown) [Cpd 23]: the IC50 was over 5000 nM at α4β1 and 183 nM on human α4β7 integrin.
As for `COc1cnn(C)c(=O)c1-c1ccc(C[C@H](NC(=O)N2CCN(c3ncc(C(F)(F)F)cc3Cl)CC2)C(=O)O)cc1` [Cpd 24], the IC50 at α4β1 was over 5000 nM; against human α4β7 integrin, 391 nM.
As for `COc1cnn(C)c(=O)c1-c1ccc(C[C@H](NC(=O)N2CCN(C3C4CC5CC(C4)CC3C5)CC2)C(=O)O)cc1` (stereo partly shown) [Cpd 25], the values for the IC50 on α4β1 and at human α4β7 integrin were over 5000 nM and 2020 nM, respectively.
On to `COc1cnn(C)c(=O)c1-c1ccc(C[C@H](NC(=O)N(O)C2CCCCC2)C(=O)O)cc1` [Cpd 26], for which the IC50 is over 5000 nM on α4β1 and 598 nM on human α4β7 integrin.
As for `COc1cnn(C)c(=O)c1-c1ccc(C[C@H](NC(=O)N(Cc2ccccc2)C(C)C)C(=O)O)cc1` [Cpd 27], the values for the IC50 on α4β1 and against human α4β7 integrin were over 5000 nM and 218 nM, respectively.
The like results for `COc1cnn(C)c(=O)c1-c1ccc(C[C@H](NC(=O)N(C)Cc2cnn(-c3ccccc3)c2)C(=O)O)cc1` [Cpd 29] were, in that order, over 5000 nM and 694 nM.
On to `COc1cnn(C)c(=O)c1-c1ccc(C[C@H](NC(=O)N2CCCN(c3nc4ccccc4o3)CC2)C(=O)O)cc1` [Cpd 30], for which the IC50 on α4β1 was over 5000 nM; on human α4β7 integrin it was 156 nM.
With `CC#CCN(Cc1ccco1)C(=O)N[C@@H](Cc1ccc(-c2c(OC)cnn(C)c2=O)cc1)C(=O)O` [Cpd 31], the values for the IC50 on α4β1 and against human α4β7 integrin were over 5000 nM and 414 nM, respectively.
With `COc1cccc2c1OCCCN(C(=O)N[C@@H](Cc1ccc(-c3c(OC)cnn(C)c3=O)cc1)C(=O)O)C2` [Cpd 32], the figures for the IC50 on α4β1 and against human α4β7 integrin were over 5000 nM and 428 nM, respectively.
For the molecule `COc1cnn(C)c(=O)c1-c1ccc(C[C@H](NC(=O)N(C(C)C)C2CCCCC2)C(=O)O)cc1` [Cpd 33], the IC50 on α4β1 is over 5000 nM; at human α4β7 integrin, 310 nM.
In the case of `COc1cnn(C)c(=O)c1-c1ccc(C[C@H](NC(=O)N(C)C2CCN(Cc3ccccc3)C2)C(=O)O)cc1` (stereo partly shown) [Cpd 35], the IC50 was over 5000 nM on α4β1 and 1830 nM against human α4β7 integrin.
`COc1cnn(C)c(=O)c1-c1ccc(C[C@H](NC(=O)N[C@@H]2CS(=O)(=O)C[C@H]2O)C(=O)O)cc1` [Cpd 36]: the IC50 at α4β1 was over 5000 nM; against human α4β7 integrin, 674 nM.
`CCN(CCN(C)C)C(=O)N[C@@H](Cc1ccc(-c2c(OC)cnn(C)c2=O)cc1)C(=O)O` [Cpd 37]: the IC50 was over 5000 nM on α4β1 and 297 nM at human α4β7 integrin.
As for `COc1cnn(C)c(=O)c1-c1ccc(C[C@H](NC(=O)N2CCC[C@@H]2CNc2ccccc2)C(=O)O)cc1` [Cpd 38], the IC50 at α4β1 is over 5000 nM; at human α4β7 integrin, 967 nM.
Consider `COc1cnn(C)c(=O)c1-c1ccc(C[C@H](NC(=O)N2CCC[C@H]2CN2CCCC2)C(=O)O)cc1` [Cpd 39], for which the IC50 on α4β1 was over 5000 nM; against human α4β7 integrin it was 871 nM.
In the case of `COc1cnn(C)c(=O)c1-c1ccc(C[C@H](NC(=O)N(CC(C)C)c2ccccc2)C(=O)O)cc1` [Cpd 41], the IC50 at α4β1 is over 5000 nM; against human α4β7 integrin it was 213 nM.
Take `COc1cnn(C)c(=O)c1-c1ccc(C[C@H](NC(=O)N(c2ccccc2)C(C)C)C(=O)O)cc1` [Cpd 42]: the IC50 was over 5000 nM on α4β1 and 92 nM against human α4β7 integrin.
On to `CCN(C(=O)N[C@@H](Cc1ccc(-c2c(OC)cnn(C)c2=O)cc1)C(=O)O)c1cc(O)ccc1C` [Cpd 44], for which the figures for the IC50 at α4β1 and against human α4β7 integrin were over 5000 nM and 24 nM, respectively.
For `COc1cnn(C)c(=O)c1-c1ccc(C[C@H](NC(=O)N(Nc2ccccc2)c2ccccc2)C(=O)O)cc1` [Cpd 46], the IC50 was over 5000 nM on α4β1 and 575 nM at human α4β7 integrin.
The like results for `COc1cnn(C)c(=O)c1-c1ccc(C[C@H](NC(=O)N(c2ccccc2)c2ccccc2)C(=O)O)cc1` [Cpd 47] were, in that order, over 5000 nM and 1450 nM.
For the molecule `COc1cnn(C)c(=O)c1-c1ccc(C[C@H](NC(=O)N(Cc2ccccc2)c2ccccc2)C(=O)O)cc1` [Cpd 48], the IC50 on α4β1 is over 5000 nM; against human α4β7 integrin, 67 nM.
The like results for `COc1cnn(C)c(=O)c1-c1ccc(C[C@H](NC(=O)N(C)c2ccccc2OC(F)(F)F)C(=O)O)cc1` [Cpd 51] were, in that order, over 5000 nM and 52 nM.
Take `COc1cnn(C)c(=O)c1-c1ccc(C[C@H](NC(=O)N(C)c2ccccc2C(F)(F)F)C(=O)O)cc1` [Cpd 52]: the IC50 on α4β1 was determined as 4170 nM; against human α4β7 integrin it was 37 nM.
The like results for `COc1cnn(C)c(=O)c1-c1ccc(C[C@H](NC(=O)N(C)c2ccccn2)C(=O)O)cc1` [Cpd 54] were, in that order, over 5000 nM and 880 nM.
